Results as given in ChEMBL document CHEMBL1201862, “PubChem BioAssay data set” (2004).
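Briefly, cells in 96-well plates were exposed to five compound concentrations for 48 h, and endpoints were estimated by linear interpolation. The concentration for 50% growth inhibition is given as GI50.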 Active and inactive are the calls of the source. Cut-off read from the data, not from the text of the source: active = GI50 up to about 1.1 µM and inactive = higher.

Experiments:
Test in all cases: growth of human tumour cells (NCI), 48 h
TK-10 = test system: TK-10
OVCAR-8 = test system: OVCAR-8
HOP-92 = test system: HOP-92
RXF 393 = test system: RXF 393
LOX IMVI = test system: LOX IMVI
HCT-15 = test system: HCT-15
OVCAR-5 = test system: OVCAR-5
SK-MEL-28 = test system: SK-MEL-28
MDA-N = test system: MDA-N
M14 = test system: M14
UO-31 = test system: UO-31
T47D = test system: T47D
CCRF-CEM = test system: CCRF-CEM
EKVX = test system: EKVX
MDA-MB-435 = test system: MDA-MB-435
OVCAR-4 = test system: OVCAR-4
COLO 205 = test system: COLO 205
NCI-H23 = test system: NCI-H23
ACHN = test system: ACHN
786-0 = test system: 786-0

SMILES | GI50 (TK-10) | GI50 (OVCAR-8) | GI50 (HOP-92) | GI50 (RXF 393) | GI50 (LOX IMVI) | GI50 (HCT-15) | GI50 (OVCAR-5) | GI50 (SK-MEL-28) | GI50 (MDA-N) | GI50 (M14) | GI50 (UO-31) | GI50 (T47D) | GI50 (CCRF-CEM) | GI50 (EKVX) | GI50 (MDA-MB-435) | GI50 (OVCAR-4) | GI50 (COLO 205) | GI50 (NCI-H23) | GI50 (ACHN) | GI50 (786-0)
CC(=O)CCNc1ccc(-c2cc(-c3ccc(N(C)C)cc3)nc3ccc4ccccc4c23)cc1 | > 100 µM (inactive) | > 100 µM (inactive) | 79.3 µM (inactive) | 12.3 µM (inactive) | > 100 µM (inactive) | 49.7 µM | > 100 µM (inactive) | 34.8 µM (inactive) | > 100 µM (inactive) | 32.4 µM (inactive) | 23.5 µM (inactive) | 9.48 µM (inactive) | 8.07 µM (inactive) | > 51.5 µM (inactive) | > 60.7 µM (inactive) | 6.52 µM (inactive) | 26.9 µM (inactive) | > 100 µM (inactive) | 17.8 µM (inactive) | 22.4 µM (inactive)
Oc1c(CN2CCN(c3ccccc3)CC2)cc(Br)c2cccnc12 | 3.61 µM (inactive) | 0.721 µM (active) | 2.2 µM (inactive) | 1.46 µM (inactive) | 0.52 µM (active) | 0.135 µM | 4.07 µM (inactive) | 3.97 µM (inactive) | 0.855 µM (active) | 1.14 µM (inactive) | 0.393 µM (active) | 1.32 µM (inactive) | 0.271 µM (active) | 2.62 µM (inactive) | 1.46 µM (inactive) | 1.7 µM (inactive) | 29.6 µM (inactive) | 1.82 µM (inactive) | 0.621 µM (active) | 1.4 µM (inactive)
Clc1ccccc1C(Nc1cnccn1)Nc1cnccn1 | > 100 µM (inactive) | > 100 µM (inactive) | > 100 µM (inactive) | > 100 µM (inactive) | > 100 µM (inactive) | 8.71 µM | > 100 µM (inactive) | > 100 µM (inactive) | 23.2 µM (inactive) | 5.85 µM (inactive) | > 100 µM (inactive) | > 100 µM (inactive) | 0.675 µM (active) | > 100 µM (inactive) | 8.59 µM (inactive) | > 100 µM (inactive) | > 100 µM (inactive) | > 100 µM (inactive) | > 100 µM (inactive) | > 100 µM (inactive)
O=C(CCc1ccc(O)cc1)NCCc1cccc(O)c1 | > 50 µM (inactive) | > 50 µM (inactive) | > 50 µM (inactive) | > 50 µM (inactive) | > 50 µM (inactive) | > 50 µM | > 50 µM (inactive) | > 50 µM (inactive) | > 50 µM (inactive) | > 50 µM (inactive) | > 50 µM (inactive) | > 50 µM (inactive) | > 50 µM (inactive) | > 50 µM (inactive) | > 50 µM (inactive) | > 50 µM (inactive) | > 50 µM (inactive) | > 50 µM (inactive) | > 50 µM (inactive) | > 50 µM (inactive)
COc1cc(/C=C/C=C2\CCC/C(=C\C=C\c3ccc(O)c(OC)c3)C2=O)ccc1O | 8.34 µM (inactive) | 12.6 µM (inactive) | 12 µM (inactive) | 10.8 µM (inactive) | 7.91 µM (inactive) | 13.6 µM | 22 µM (inactive) | 12.6 µM (inactive) | 3.91 µM (inactive) | 18.2 µM (inactive) | 12 µM (inactive) | 8.32 µM (inactive) | 0.991 µM (active) | 7.36 µM (inactive) | 9.57 µM (inactive) | 6.27 µM (inactive) | 18.6 µM (inactive) | 11.7 µM (inactive) | 4.08 µM (inactive) | 10 µM (inactive)
CN1C(=O)N(C)C2(CCN(CC(CC3OCCO3)c3ccc(F)cc3)CC2)C1=O (stereo not given) | > 100 µM (inactive) | > 100 µM (inactive) | > 100 µM (inactive) | > 100 µM (inactive) | > 100 µM (inactive) | > 100 µM | > 100 µM (inactive) | > 100 µM (inactive) | > 100 µM (inactive) | > 100 µM (inactive) | > 100 µM (inactive) | > 100 µM (inactive) | > 100 µM (inactive) | > 100 µM (inactive) | > 100 µM (inactive) | > 100 µM (inactive) | > 100 µM (inactive) | > 100 µM (inactive) | > 100 µM (inactive) | > 100 µM (inactive)
CN(N=O)c1nc2c(C(N)=O)ncn2s1 | 20 µM (inactive) | 30.5 µM (inactive) | 32.7 µM (inactive) | > 100 µM (inactive) | 15.2 µM (inactive) | > 100 µM | > 100 µM (inactive) | > 100 µM (inactive) | > 100 µM (inactive) | 15.7 µM (inactive) | 22.2 µM (inactive) | > 100 µM (inactive) | 45.4 µM (inactive) | > 100 µM (inactive) | 53.2 µM (inactive) | 47.9 µM (inactive) | > 100 µM (inactive) | > 100 µM (inactive) | 57.3 µM (inactive) | 85.1 µM (inactive)
COC(=O)[C@H](C)N1C(=O)N[C@@H](C(C)C)C1=O | > 100 µM (inactive) | > 100 µM (inactive) | > 100 µM (inactive) | > 100 µM (inactive) | > 100 µM (inactive) | > 100 µM | > 100 µM (inactive) | > 100 µM (inactive) | > 100 µM (inactive) | > 100 µM (inactive) | > 100 µM (inactive) | > 100 µM (inactive) | > 100 µM (inactive) | > 100 µM (inactive) | > 100 µM (inactive) | > 100 µM (inactive) | > 100 µM (inactive) | > 100 µM (inactive) | > 100 µM (inactive) | > 100 µM (inactive)
Cc1nnc(-n2c(O)cc(=O)n(-c3ccccc3)c2=S)nc1/C=C/c1ccc(N(C)C)cc1 | > 39.4 µM (inactive) | 9.59 µM (inactive) | 21.5 µM (inactive) | 17.5 µM (inactive) | 4.32 µM (inactive) | 4.88 µM | 27.4 µM (inactive) | 18.5 µM (inactive) | 9.25 µM (inactive) | 13.7 µM (inactive) | 4.11 µM (inactive) | 6.62 µM (inactive) | 8.2 µM (inactive) | 9.23 µM (inactive) | 5.62 µM (inactive) | 11.4 µM (inactive) | 7.23 µM (inactive) | 8.36 µM (inactive) | 9.23 µM (inactive) | 12.3 µM (inactive)
C/C(C[n+]1ccccc1)=N\N=C(N)N | > 100 µM (inactive) | > 100 µM (inactive) | > 100 µM (inactive) | > 100 µM (inactive) | > 100 µM (inactive) | > 100 µM | > 100 µM (inactive) | > 100 µM (inactive) | > 100 µM (inactive) | > 100 µM (inactive) | > 100 µM (inactive) | > 100 µM (inactive) | > 100 µM (inactive) | > 100 µM (inactive) | > 100 µM (inactive) | > 100 µM (inactive) | > 100 µM (inactive) | > 100 µM (inactive) | > 100 µM (inactive) | > 100 µM (inactive)
O=C1NC(N2CCOCC2)=N/C1=C\c1ccc(Cl)cc1 | > 100 µM (inactive) | > 100 µM (inactive) | > 100 µM (inactive) | > 100 µM (inactive) | > 100 µM (inactive) | > 100 µM | > 100 µM (inactive) | > 100 µM (inactive) | > 100 µM (inactive) | > 100 µM (inactive) | > 100 µM (inactive) | > 100 µM (inactive) | > 100 µM (inactive) | > 100 µM (inactive) | > 100 µM (inactive) | > 100 µM (inactive) | > 100 µM (inactive) | > 100 µM (inactive) | > 100 µM (inactive) | > 100 µM (inactive)
CC(=O)OC1CC[C@]2(C)C3CC[C@@]4(C)C(CCC4[C@H](C)CCCC(C)C)[C@@H]3CCC2(Br)C1 (stereo not given in full) | 12.8 µM (inactive) | 10.8 µM (inactive) | 19.7 µM (inactive) | 12.1 µM (inactive) | 11.6 µM (inactive) | 15.1 µM | 24.2 µM (inactive) | 7.91 µM (inactive) | 20.1 µM (inactive) | 18.5 µM (inactive) | 14 µM (inactive) | 14.1 µM (inactive) | 10.2 µM (inactive) | > 50 µM (inactive) | 8.83 µM (inactive) | 11.7 µM (inactive) | 9.62 µM (inactive) | 13 µM (inactive) | 9.91 µM (inactive) | 8.49 µM (inactive)
O=C(/C=C/c1ccccc1)Oc1ccc(C(=O)/C=C/c2ccccc2)cc1 | 14.5 µM (inactive) | 10.2 µM (inactive) | 17.1 µM (inactive) | 23.1 µM (inactive) | 4.98 µM (inactive) | 4.29 µM | 13.7 µM (inactive) | 12.4 µM (inactive) | 6.3 µM (inactive) | 14.1 µM (inactive) | 10.4 µM (inactive) | 11 µM (inactive) | 3.3 µM (inactive) | 13.3 µM (inactive) | 4.65 µM (inactive) | 25.8 µM (inactive) | 13.9 µM (inactive) | 10.6 µM (inactive) | 11.9 µM (inactive) | 6.53 µM (inactive)
NC(CP(=O)(O)O)C(=O)O (stereo not given) | > 100 µM (inactive) | > 100 µM (inactive) | > 100 µM (inactive) | > 100 µM (inactive) | 43.6 µM (inactive) | > 100 µM | > 100 µM (inactive) | > 100 µM (inactive) | > 100 µM (inactive) | > 100 µM (inactive) | > 100 µM (inactive) | > 100 µM (inactive) | > 100 µM (inactive) | > 100 µM (inactive) | > 100 µM (inactive) | > 100 µM (inactive) | > 100 µM (inactive) | > 100 µM (inactive) | > 100 µM (inactive) | > 100 µM (inactive)
